For assay [1], the system named is ATP-based allosteric TSDzyme (DNA, G4) AGGCAGTTGAGACGAACATTCCTAAGTCTGAAATTTATCACCCGCCATAGTAGACGTATCACC/CTTGCTACACGATTCAGACTTAGGAATGTTCGACATGCGAGGGTCCAATACCGACGATTACAG/GGTGATAAAACGTGTAGCAAGCTGTAATCGACTCTAACCTGGGGGAGTATTGCGGAGGAAGGTGGCTCACTACTATGGCG/GGGTAGGGCGGGTTGGGTTAGAGACGGTATTGGACCCTCGCATGACTCAACTGCCTGGTGATACGAGAGCCTGGGTAGGGCGGGTTGGG
As to the kind of experiment: allosteric change of peroxidase activity. Particulars: 0.5 mM ATP.

For assay [2], the system named is Hairpin-based allosteric TSDzyme (DNA, G4) AGGCAGTTGAGACGAACATTCCTAAGTCTGAAATTTATCACCCGCCATAGTAGACGTATCACC/CTTGCTACACGATTCAGACTTAGGAATGTTCGACATGCGAGGGTCCAATACCGACGATTACAG/GGTGATAAAACGTGTAGCAAGCTGTAATCGACTCTAGCGGAAGAACCCACAACCGCGGCTCACTACTATGGCG/GGGTAGGGCGGGTTGGGTTAGAGACGGTATTGGACCCTCGCATGACTCAACTGCCTGGTGATACGAGAGCCTGGGTAGGGCGGGTTGGG
To be noted: K+ 20 mM KAc, 70 mM KCl (assumed KAc buffer).

Assay [3] has as its system TSDzyme (in) (DNA, G4) GGGTAGGGCGGGTTGGGCCAGGCAGTTGAGACGAACATTCCTAAGTCTGAAATTTATCACCCGCCATAGTAGACGTATCA/CTTGCTACACGATTCAGACTTAGGAATGTTCGACATGCGAGGGTCCAATACCGACGATTACAG/GGTGATAAAACGTGTAGCAAGCTGTAATCGACGGGAAGAGCATGCCCATCCACTACTATGGCG/CCTCGCATGACTCAACTGCCTGGTGATACGAGGATGGGCATGCTCTTCCCGACGGTATTGGAC
As to the kind of experiment: free energy of hemin/G-quadruplex complex formation.

Assay [4] deals with 5 bp Bi-quadruplex (DNA, G4) GGGTAGGGCGGGTTGGGTTTTTGGGTAGGGCGGGTTGGG
To be noted: K+ 20 mM KAc, 70 mM KCl (assumed KAc buffer).

Assay [5] relates to 10 bp Bi-quadruplex (DNA, G4) GGGTAGGGCGGGTTGGGTTTTTTTTTTGGGTAGGGCGGGTTGGG
Particulars: K+ 20 mM KAc, 70 mM KCl (assumed KAc buffer).

The test system of assay [6] is TSDzyme (out) (DNA, G4) GGGTAGGGCGGGTTGGGCAGTTGAGACGAACATTCCTAAGTCTGAAATTTATCACCCGCCATAGTAGACGTATCACCAGG/CTTGCTACACGATTCAGACTTAGGAATGTTCGACATGCGAGGGTCCAATACCGACGATTACAG/GGTGATAAAACGTGTAGCAAGCTGTAATCGACGGGAAGAGCATGCCCATCCACTACTATGGCG/CCTCGCATGACTCAACTGCCTGGTGATACGAGGATGGGCATGCTCTTCCCGACGGTATTGGAC
As to the kind of experiment: free energy of hemin/G-quadruplex complex formation.

Assay [7] relates to 15 bp Bi-quadruplex (DNA, G4) GGGTAGGGCGGGTTGGGTTTTTTTTTTTTTTTGGGTAGGGCGGGTTGGG
To be noted: K+ 20 mM KAc, 70 mM KCl (assumed KAc buffer).

Assay [8] deals with G-quadruplex (free hemin-G) (DNA, G4) GGGTAGGGCGGGTTGGG
As to the kind of experiment: free energy of hemin/G-quadruplex complex formation.

Assay [9] has as its system Hairpin-based allosteric TSDzyme (DNA, G4) AGGCAGTTGAGACGAACATTCCTAAGTCTGAAATTTATCACCCGCCATAGTAGACGTATCACC/CTTGCTACACGATTCAGACTTAGGAATGTTCGACATGCGAGGGTCCAATACCGACGATTACAG/GGTGATAAAACGTGTAGCAAGCTGTAATCGACTCTAGCGGAAGAACCCACAACCGCGGCTCACTACTATGGCG/GGGTAGGGCGGGTTGGGTTAGAGACGGTATTGGACCCTCGCATGACTCAACTGCCTGGTGATACGAGAGCCTGGGTAGGGCGGGTTGGG
Described as above.

Assay [10] has as its system ATP-based allosteric TSDzyme (DNA, G4) AGGCAGTTGAGACGAACATTCCTAAGTCTGAAATTTATCACCCGCCATAGTAGACGTATCACC/CTTGCTACACGATTCAGACTTAGGAATGTTCGACATGCGAGGGTCCAATACCGACGATTACAG/GGTGATAAAACGTGTAGCAAGCTGTAATCGACTCTAACCTGGGGGAGTATTGCGGAGGAAGGTGGCTCACTACTATGGCG/GGGTAGGGCGGGTTGGGTTAGAGACGGTATTGGACCCTCGCATGACTCAACTGCCTGGTGATACGAGAGCCTGGGTAGGGCGGGTTGGG
The description is as above.

Assay [11] has as its system TSDzyme (in) (DNA, G4) GGGTAGGGCGGGTTGGGCCAGGCAGTTGAGACGAACATTCCTAAGTCTGAAATTTATCACCCGCCATAGTAGACGTATCA/CTTGCTACACGATTCAGACTTAGGAATGTTCGACATGCGAGGGTCCAATACCGACGATTACAG/GGTGATAAAACGTGTAGCAAGCTGTAATCGACGGGAAGAGCATGCCCATCCACTACTATGGCG/CCTCGCATGACTCAACTGCCTGGTGATACGAGGATGGGCATGCTCTTCCCGACGGTATTGGAC
As to the kind of experiment: hemin absorbance at 404 nm vs DNA concentration. Particulars: K+ 20 mM KAc, 70 mM KCl (assumed KAc buffer).

The subject of assay [12] is G-quadruplex (free hemin-G) (DNA, G4) GGGTAGGGCGGGTTGGG
Nature of the assay: hemin absorbance at 404 nm vs DNA concentration. Particulars: K+ 20 mM KAc, 70 mM KCl (assumed KAc buffer).

The test system of assay [13] is ATP-based allosteric TSDzyme (DNA, G4) AGGCAGTTGAGACGAACATTCCTAAGTCTGAAATTTATCACCCGCCATAGTAGACGTATCACC/CTTGCTACACGATTCAGACTTAGGAATGTTCGACATGCGAGGGTCCAATACCGACGATTACAG/GGTGATAAAACGTGTAGCAAGCTGTAATCGACTCTAACCTGGGGGAGTATTGCGGAGGAAGGTGGCTCACTACTATGGCG/GGGTAGGGCGGGTTGGGTTAGAGACGGTATTGGACCCTCGCATGACTCAACTGCCTGGTGATACGAGAGCCTGGGTAGGGCGGGTTGGG
To be noted: K+ 20 mM KAc, 70 mM KCl (assumed KAc buffer).

The test system of assay [14] is TSDzyme (out) (DNA, G4) GGGTAGGGCGGGTTGGGCAGTTGAGACGAACATTCCTAAGTCTGAAATTTATCACCCGCCATAGTAGACGTATCACCAGG/CTTGCTACACGATTCAGACTTAGGAATGTTCGACATGCGAGGGTCCAATACCGACGATTACAG/GGTGATAAAACGTGTAGCAAGCTGTAATCGACGGGAAGAGCATGCCCATCCACTACTATGGCG/CCTCGCATGACTCAACTGCCTGGTGATACGAGGATGGGCATGCTCTTCCCGACGGTATTGGAC
Nature of the assay: hemin absorbance at 404 nm vs DNA concentration. Particulars: K+ 20 mM KAc, 70 mM KCl (assumed KAc buffer).

Regarding `Nc1ncnc2c1ncn2[C@@H]1O[C@H](COP(=O)(O)OP(=O)(O)OP(=O)(O)O)[C@@H](O)[C@H]1O`, the binding entry in assay [1] is listed as “yes”.

In general, KD refers to a measure of binding affinity in units of concentration. In the case of `C=CC1=C(C)C2=Cc3c(C=C)c(C)c4[n]3[Fe]([Cl])[n]3c(c(C)c(CCC(=O)O)c3=CC3=NC(=C4)C(C)=C3CCC(=O)O)=CC1=N2`, the KD in [2] came out at 0.50 ± 0.15 µM; in assay [4] it was 1.2 ± 0.2 µM; in [5], 1.3 ± 0.2 µM; in assay [7], 1.3 ± 0.4 µM; in assay [11], 0.70 ± 0.14 µM; in assay [12], 2.2 ± 0.5 µM. For the same compound, the dissociation constant KD in assay [13] came out at 0.45 ± 0.17 µM; in assay [14], 0.75 ± 0.23 µM. Also, the “-ΔGtetra” value stood at 35.1 ± 0.5 kJ/mol in [3], 34.9 ± 0.7 kJ/mol in [6], 35.9 ± 0.7 kJ/mol in [9] and 36.2 ± 0.9 kJ/mol in assay [10]. The “-ΔGfree” value in assay [8] was determined as 32.3 ± 0.6 kJ/mol.

These data come from PMC5975834 (2015).
